From patent US20240247048A1 (EMORY UNIVERSITY, priority 2021, published 2024)

Assays:
PDAC patient T cells = assay: ex vivo 9-day expansion of PDAC patient peripheral blood T cells; assay type: cell-based, human
Method: (FIG. 17A) Representative western blot and (FIG. 17B) quantified expression levels of VPAC1 and VPAC2; and (FIG. 17C) PD-1 and CTLA-4 in lysates of healthy human T cells expanded with plate bound human anti-CD3 antibodies for 0, 3, 6, 12, 24, 48 and 72 hours. Lower molecular weight band of 25kD shown for VPAC2-specific expression as confirmed from our VPAC2 KO model. Percentage of (FIG. 17D) CD69 expression at 24 h post activation (FIG. 17E) phosphorylation of CREB (phospho-CREB) downstream of VPAC1/2 receptor at 6 h and in CD4+ and CD8+ T cells normalized to levels in control with no peptide. PDAC patient peripheral blood T cells were expanded for 9 days with plate bound human anti-CD3 antibodies+/−ANT008 and the (FIG. 17F) percentage of Tregs was quantified using the (FIG. 17G) gating strategy shown. […] Statistical differences in FIGS. 17D and 17E were calculated via repeated measures ANOVA followed by Dunnett's post-test where each sample in the treatment group was compared to the matched sample in the control group (scrambled treated). Statistical differences in FIGS. 17F, 17H, and 17I were calculated via paired student T-test. […]
Human T cell activation and expansion. […] Cells were counted using Trypan blue dye and phenotyped via flow cytometry on day 9. […]

KPC-Luc tumors = assay: subcutaneous KPC / KPC-Luc pancreatic tumors in C57BL/6 mice; assay type: in vivo, mouse
Method: Shown are scrambled peptide plus IgG, Ant308 plus anti-PD1, scrambled peptide plus anti-PD-1, Ant308 plus IgG, and Ant308 plus AMD3100. Tumor volume was measured with calipers. ‘Star’ (*) indicates mice euthanized either due to large tumor volume (>500 mm^3) or ulceration of the skin overlying the tumor.
This decease in tumor volume was more pronounced in combination with anti-PD1 treatment. We also examined the effect of ANT308 in combination with Iso IgG or anti-PD1 antibody had on tumor volume as measured as a percent change in volume (FIG. 8A) and in measured volume (FIG. 8B). […] Investigating this effect more completely, we observed that combination treatment with both anti-PD1 and VIP-R antagonist was able to slow tumor growth relative to control mice treated with scrambled peptide and iso-type matched IgG, with the combination showing a statistically significant improvement in the rate of tumor growth (FIG. 8D). […]
In vivo efficacy studies. […] In the KPC-Luc models, the tumor growth rate was plotted using the tumor flux measurements quantified using IVIS bioluminescent imaging. […] In experiments with subcutaneous tumors, Vernier calipers were used to measure the tumor dimensions and the tumor volume was calculated using the formula: tumor volume=½(length×width×height).

KPRRPYTDNYTRLRKQMAVKKYLNLILN [ANT008]
T cells with an exhausted phenotype (co-expressing PD1 and Tim-3 or Lag-3) (PDAC patient T cells; CD4+ and CD8+ subsets, 9 days, FIG. 17h, 17i): significantly decreased
proportion of human Tregs (CD4+ CD25+ FoxP3+) (PDAC patient T cells; after 9 days of T cell expansion, FIG. 17f): significantly decreased

KPRRPYTSDYTRLRKQMAVKKYLNLILN [ANT308]
growth of tumors compared with control mice (scrambled peptide and isotype-matched IgG) (KPC-Luc tumors; FIG. 9): not statistically different
tumor volume (KPC-Luc tumors; day 22, 3 days after a 10-day course, FIG. 7): reduced tumor volume
